Reference: publication PMC3794980, “Identification of Conserved and HLA Promiscuous DENV3 T-Cell Epitopes” (PLoS Neglected Tropical Diseases, 2013)

Key:
Assay in all cases: biochemical
Format in all cases: binding
[1] = target: DRB3*0101 (Homo sapiens, UniProt P01903+P79483)
[2] = target: DRB5*0101 (Homo sapiens, UniProt P01903+Q30154)
[3] = target: DRB4*0101 (Homo sapiens, UniProt P01903+P13762, G164S)

Row | SMILES | IC50 [1] [µM] | IC50 [2] [µM] | IC50 [3] [µM]
1 | CC[C@H](C)[C@H](NC(=O)[C@@H](NC(=O)[C@H](CCCNC(=N)N)NC(=O)[C@H](CCC(=O)O)NC(=O)[C@@H]1CCCN1C(=O)CNC(=O)[C@H](CC(=O)O)NC(=O)[C@@H](NC(=O)[C@H](CC(C)C)NC(=O)[C@@H](NC(=O)[C@@H](NC(=O)[C@@H]1CCCN1C(=O)[C@H](CCCCN)NC(=O)[C@H](CC(C)C)NC(=O)[C@@H](N)CS)C(C)C)[C@@H](C)CC)[C@@H](C)O)C(C)C)C(=O)O [NS3 429-443] | 0.0057 | 13.2 | 1.21
2 | CC[C@H](C)[C@H](NC(=O)[C@@H](N)C(C)C)C(=O)N[C@@H](CC(C)C)C(=O)N[C@H](C(=O)N[C@@H](CC(=O)O)C(=O)NCC(=O)N1CCC[C@H]1C(=O)N[C@@H](CCC(=O)O)C(=O)N[C@@H](CCCNC(=N)N)C(=O)N[C@H](C(=O)N[C@H](C(=O)N[C@@H](CC(C)C)C(=O)N[C@@H](C)C(=O)NCC(=O)N1CCC[C@H]1C(=O)O)[C@@H](C)CC)C(C)C)[C@@H](C)O [NS3 433-447] | 0.134 | 8.29 | 3.51
3 | CC[C@H](C)[C@H](NC(=O)CNC(=O)[C@H](CO)NC(=O)[C@H](CCCCN)NC(=O)[C@H](CCCCN)NC(=O)[C@H](Cc1ccc(O)cc1)NC(=O)[C@H](CC(C)C)NC(=O)[C@H](CC(=O)O)NC(=O)[C@H](Cc1ccccc1)NC(=O)[C@H](CCC(=O)O)NC(=O)[C@@H](N)CCCCN)C(=O)N[C@H](C(=O)N[C@@H](CCC(=O)O)C(=O)N[C@H](C(=O)N[C@@H](CC(=O)O)C(=O)N[C@@H](CCCNC(=N)N)C(=O)N[C@H](C(=O)O)[C@@H](C)O)C(C)C)[C@@H](C)O [NS5 23-39] | 5.8 | 10.1 | 3.43
4 | CC[C@H](C)[C@H](NC(=O)[C@H](CCC(=O)O)NC(=O)CNC(=O)[C@H](CCCNC(=N)N)NC(=O)[C@H](CCCCN)NC(=O)[C@@H](N)CC(C)C)C(=O)N[C@H](C(=O)N[C@@H](Cc1c[nH]cn1)C(=O)N[C@@H](Cc1c[nH]cn1)C(=O)N[C@@H](C)C(=O)N[C@H](C(=O)N[C@@H](CO)C(=O)N[C@@H](CCCNC(=N)N)C(=O)NCC(=O)N[C@@H](CO)C(=O)N[C@@H](C)C(=O)N[C@@H](CCCCN)C(=O)O)C(C)C)[C@@H](C)O [NS5 45-61] | 7.5 | 0.449 | 0.0085
5 | CC[C@H](C)[C@H](NC(=O)[C@H](CS)NC(=O)[C@H](Cc1ccccc1)NC(=O)[C@H](CCC(N)=O)NC(=O)[C@@H](N)CC(N)=O)C(=O)N[C@@H](CCCCN)C(=O)N[C@H](C(=O)N[C@@H](CC(C)C)C(=O)N[C@@H](CC(N)=O)C(=O)N1CCC[C@H]1C(=O)N[C@@H](Cc1ccc(O)cc1)C(=O)N[C@@H](CCSC)C(=O)N1CCC[C@H]1C(=O)N[C@H](C(=O)N[C@H](C(=O)N[C@H](C(=O)N[C@@H](CCC(=O)O)C(=O)O)[C@@H](C)CC)C(C)C)[C@@H](C)O)C(C)C [NS5 175-191] | 1.34 | 0.722 | 6.64
6 | CC[C@H](C)[C@H](NC(=O)[C@H](CCCNC(=N)N)NC(=O)[C@H](CCCCN)NC(=O)[C@@H](NC(=O)[C@H](CCCNC(=N)N)NC(=O)[C@H](CCC(=O)O)NC(=O)CNC(=O)[C@@H](NC(=O)[C@@H](NC(=O)[C@H](CC(=O)O)NC(=O)[C@H](CCSC)NC(=O)[C@H](CC(N)=O)NC(=O)[C@@H]1CCCN1C(=O)[C@@H](NC(=O)[C@H](CCC(=O)O)NC(=O)[C@@H]1CCCN1)[C@@H](C)O)C(C)C)[C@@H](C)CC)[C@@H](C)CC)C(=O)N[C@@H](CCCCN)C(=O)O [NS5 268-284] | 1.39 | 2.83 | 0.869
7 | CSCC[C@H](NC(=O)[C@H](CCSC)NC(=O)[C@H](CC(N)=O)NC(=O)[C@H](Cc1ccc(O)cc1)NC(=O)[C@@H](NC(=O)[C@H](CS)NC(=O)[C@H](CO)NC(=O)CN)C(C)C)C(=O)NCC(=O)N[C@@H](CCCCN)C(=O)N[C@@H](CCCNC(=N)N)C(=O)N[C@@H](CCC(=O)O)C(=O)N[C@@H](CCCCN)C(=O)N[C@@H](CCCCN)C(=O)N[C@@H](CC(C)C)C(=O)NCC(=O)N[C@@H](CCC(=O)O)C(=O)O [NS5 447-463] | 1.76 | 0.025 | 8.47
8 | CC(C)C[C@H](NC(=O)[C@H](Cc1ccccc1)NC(=O)CN)C(=O)N[C@@H](CC(N)=O)C(=O)N[C@@H](CCC(=O)O)C(=O)N[C@@H](CC(=O)O)C(=O)N[C@@H](Cc1c[nH]cn1)C(=O)N[C@@H](Cc1c[nH]c2ccccc12)C(=O)N[C@@H](Cc1ccccc1)C(=O)N[C@@H](CO)C(=O)N[C@@H](CCCNC(=N)N)C(=O)N[C@@H](CCC(=O)O)C(=O)N[C@@H](CC(N)=O)C(=O)N[C@@H](CO)C(=O)N[C@@H](Cc1ccc(O)cc1)C(=O)N[C@@H](CO)C(=O)NCC(=O)O [NS5 489-505] | 0.387 | 0.936 | 13.9
9 | CC(C)C[C@H](N)C(=O)N[C@H](C(=O)N[C@@H](Cc1ccc(O)cc1)C(=O)N[C@@H](CCC(N)=O)C(=O)N[C@@H](CC(N)=O)C(=O)N[C@@H](CCCCN)C(=O)N[C@H](C(=O)N[C@H](C(=O)N[C@@H](CCCCN)C(=O)N[C@H](C(=O)N[C@@H](CCC(N)=O)C(=O)N[C@@H](CCCNC(=N)N)C(=O)N1CCC[C@H]1C(=O)N[C@H](C(=O)N1CCC[C@H]1C(=O)N[C@@H](CCCCN)C(=O)NCC(=O)O)[C@@H](C)O)C(C)C)C(C)C)C(C)C)[C@@H](C)O [NS5 570-586] | 4.57 | 0.028 | 0.013
10 | CC[C@H](C)[C@H](NC(=O)[C@@H](NC(=O)[C@H](CC(=O)O)NC(=O)[C@H](CCSC)NC(=O)[C@@H](NC(=O)[C@@H](NC(=O)CNC(=O)[C@H](CCCCN)NC(=O)[C@@H]1CCCN1C(=O)[C@@H](NC(=O)[C@@H]1CCCN1C(=O)[C@H](CCCNC(=N)N)NC(=O)[C@H](CCC(N)=O)NC(=O)[C@@H](NC(=O)[C@H](CCCCN)NC(=O)[C@@H](NC(=O)[C@@H](N)C(C)C)C(C)C)C(C)C)[C@@H](C)O)[C@@H](C)O)C(C)C)[C@@H](C)CC)C(=O)O [NS5 576-592] | 2.91 | 0.084 | 0.108
11 | CC[C@H](C)[C@H](NC(=O)[C@H](CC(=O)O)NC(=O)[C@H](CCSC)NC(=O)[C@@H](N)C(C)C)C(=O)N[C@H](C(=O)N[C@@H](CO)C(=O)N[C@@H](CCCNC(=N)N)C(=O)N[C@@H](CCCCN)C(=O)N[C@@H](CC(=O)O)C(=O)N[C@@H](CCC(N)=O)C(=O)N[C@@H](CCCNC(=N)N)C(=O)NCC(=O)N[C@@H](CO)C(=O)NCC(=O)N[C@@H](CCC(N)=O)C(=O)N[C@H](C(=O)NCC(=O)O)C(C)C)[C@@H](C)CC [NS5 588-604] | 4.26 | 17.1 | 6.24
12 | CC[C@H](C)[C@H](NC(=O)[C@@H](N)CCCCN)C(=O)N[C@H](C(=O)N[C@@H](CCC(N)=O)C(=O)N[C@@H](Cc1c[nH]c2ccccc12)C(=O)N[C@@H](CC(C)C)C(=O)N[C@@H](CCC(=O)O)C(=O)N[C@H](C(=O)N[C@@H](CCCCN)C(=O)NCC(=O)N[C@H](C(=O)N[C@@H](CCC(=O)O)C(=O)N[C@@H](CCCNC(=N)N)C(=O)N[C@@H](CC(C)C)C(=O)N[C@@H](CCCCN)C(=O)N[C@@H](CCCNC(=N)N)C(=O)N[C@@H](CCSC)C(=O)O)C(C)C)[C@@H](C)O)[C@@H](C)O [NS5 642-658] | 12.2 | 0.0051 | 15.3
